Source: patent publication US20260325511A1, “METHODS OF USE OF A LIPOSOMAL COMPOSITION COMPRISING AN ATR INHIBITOR” (Jazz Pharmaceuticals Therapeutics, Inc., priority 2023, published 2026)

Assays:
Format in all cases: in vivo, mouse
[1] = test system: non-small-cell lung cancer model (CTG-0828 PDX); assay: Efficacy in NSCLC model CTG-0828 PDX (Example 7)
Experimental: An efficacy study similar to those described in Example 3 above, was repeated where liposomal ATR inhibitor (Compounds A) and/or irinotecan were dosed at 50 mg/kg once a week in a non-small-cell lung cancer model (CTG-0828 PDX) for 5 weeks (QWx5) and compared to combinations of liposomal ATR inhibitor (Compounds A) and irinotecan. Animal study groups are disclosed in Table 10 (n=8 per group).

[2] = test system: colorectal carcinoma (CRC) model (Colo205); assay: Efficacy in colorectal cancer model Colo205 (Example 5); conditions: Lipo-G Comp. A 10-40 mg/kg IV QW or irinotecan 50 mg/kg IP QW
Experimental: (§1) Subcutaneous tumor models were initiated on 6-8 week old, female athymic nude mice. A cell suspension containing 5e6/100 μL CRC Colo205 cells in 1:1 PBS: Matrigel was subcutaneously injected into the hind flank of […] mice. Tumors were measured three times a week by digital caliper and reported as volume, calculated as V=π×1×w∧2 wherein 1 and w denote the longest and shortest tumor diameter respectively. Engrafted mice were then randomized into cohorts for treatment at an average tumor size of 80 mm^3.
(§2) Mice were organized into appropriate groups consisting of control (empty vehicle) and treatment groups including free irinotecan, irinotecan in combination with liposomal Compound A or liposomal Compound C, or irinotecan and berzosertib. […] Animals were weighed and monitored for survival and in-life observations were collected at the time of weight measurement. Mice were monitored individually to endpoint which was either an individual tumor weight of 2000 mm^3 or other defined risk factors, whichever came first.
An efficacy study similar to those described in Example 3 above, was repeated where liposomal ATR inhibitors (Compounds A) were dosed once a week in a colorectal carcinoma (CRC) model (Colo205). Animal study groups are disclosed in Table 7 (n=8 per group)

CRC Colo205 [3] = assay: Tumor efficacy study of liposomal ATR inhibitors + irinotecan, CRC Colo205 model (Example 3)
Experimental: Tumor efficacy studies were used to compare the efficacy of ATR inhibitors (Compounds A and C) in liposomal formulations in combination with irinotecan against irinotecan as a single agent in CRC Colo205 model.
as §1
Mice were organized into appropriate groups consisting of control (empty vehicle) and treatment groups including free irinotecan, irinotecan in combination with liposomal Compound A or liposomal Compound C, or irinotecan and berzosertib. Mice were administered free drug orally, and injected intravenously for liposomal compounds, with the required volume of sample to administer the prescribed dose to the animals based on individual mouse weights on dosing days. Animals were weighed and monitored for survival and in-life observations were collected at the time of weight measurement. Mice were monitored individually to endpoint which was either an individual tumor weight of 2000 mm^3 or other defined risk factors, whichever came first.
Animal study groups are disclosed in Table 2 (n=8 per group). Irinotecan was administered at 50 mg/kg via IP in a liposomal-free composition, once a week. Liposomal ATR inhibitors were administered at either 20 mg/kg (Group7) or 40 mg/kg (Groups 3, 5, 6, 8-10) via IV every other day. Berzosertib, clinical benchmark, was administered 5 consecutive days with 2 days off schedule. Last dose of any therapeutically active agent was administered on day 33.
Table 3 summarizes the tumor growth inhibition (TGI %) compared to the vehicle (Group 2) and tumor growth dynamic (TGD) compared to irinotecan single agent ([…]).

CRC Colo205 [4] = assay: Dosing schedule study, once a week, efficacy similar to Example 3 (Example 4A); conditions: vs vehicle; day 28 from inoculation (day 14 from start of dosing); irinotecan 50 mg/kg IP
CRC Colo205 [5] = assay: Dosing schedule study, efficacy similar to Example 3 (Example 4B); parameters: dose or concentration left out as unconfirmed; conditions: vs vehicle; day 44 from inoculation (day 12 from start of measurements)
Experimental: as §1, §2
Efficacy study similar to those described in Example 3 were also repeated where liposomal ATR inhibitors (Compounds A, C, or berzosertib) were dosed once a week or three times a week. Animal study groups are disclosed in Table 5B (n=8 per group). […]

[6] = irinotecan 50 mg/kg IP QW (reference)

## CCc1c2c(nc3ccc(OC(=O)N4CCC(N5CCCCC5)CC4)cc13)-c1cc3c(c(=O)n1C2)COC(=O)[C@]3(O)CC [Irinotecan, irinotecan]
[1]; 50 mg/kg QWx5
  CR tumor regression rate: 0%
  Tumor Growth Delay Index (TGDI): 4.4
[1]; 50 mg/kg QWx5, statistically significant improvement
  survival: median time to reach and exceed a tumor burden of 1 cm: 100 days
[1]; 50 mg/kg each agent, QWx5
  Max % Tumor Grown Inhibition (TGI): 91%
  Regression * (% max): 60%
  TGDI (vs. vehicle): 4.4
[2]
  activity as single agent: no/limited activity
CRC Colo205 [3]; day 20, irinotecan 50 mg/kg IP QW
  TGI % (vs. vehicle) d 20: 67%
CRC Colo205 [3]; day 27, irinotecan 50 mg/kg IP QW
  TGI % (vs. vehicle) d 27: 74%
CRC Colo205 [3]; irinotecan 50 mg/kg IP QW
  CR % (complete response): 0%
  ORR % (objective response rate): 0%
CRC Colo205 [3]; [6]
  TGD (vs. single agent) %: 0%
  TGD (vs. single agent) Index: 1.0
CRC Colo205 [3]; irinotecan 50 mg/kg IP QW, n=8
  PR# (partial response), number of mice: 0 mice
  Total R (response), number of mice: 0 mice
CRC Colo205 [4]
  TGI % d 28 (d 14): 55.4%
CRC Colo205 [5]
  TGI % D 44(d 12): 0%
